# Experimental data taken from patent US11554103B2, “Compositions and methods to reduce pharmaceutical-induced toxicity” (priority 2016, dated 2023).
# “Also recorded” adds a separate entry of the source.
# How the values were obtained:
# [1] = test system: tyrosine hydroxylase positive cells in the SNc; test: Methamphetamine 14 days plus 14 days withdrawal, stereology of tyrosine hydroxylase positive cells (Example 1); assay type: in vivo, mouse
# Description: (§1) Animals and treatment paradigms: Male C57/B16 and TH-mitoroGFP (Guzman et al., 2010 Nature p. 696; incorporated by reference in its entirety) mice 5-8 wks of age were used for all imaging studies. In addition to the TH-mitoroGFP transgenic line, roGFP was virally delivered into the SNc of C57/B16 mice (either targeting cytosolic or mitochondrial compartments).
# Stereology: Brains were fixed with 4% paraformaldehyde and serial coronal sections ([…]) were stained for tyrosine hydroxylase. Total number of tyrosine hydroxylase positive cells were counted in the SNc with the optical fractionator method (West et al., 1991 Anat Rec p. 482; Ilijic et al., 2011 Neurobiol Dis p. 364; incorporated by reference in their entireties).
# [2] = test system: substantia nigra pars compacta dopaminergic neurons; test: Chronic in vivo methamphetamine administration for 28 days, stereology and striatal optical density (Example 2)
# Description: Immunohistochemistry and stereological analysis: Mice were terminally anesthetized with a mixture of ketamine (50 mg/kg)/xylazine (4.5 mg/kg) and transcardially perfused with 4% paraformaldehyde, post-fixed overnight and cryoprotected in 30% sucrose/phosphate buffered saline (PBS) at 4° C. until use. Serial coronal sections (60 μm thick) were collected throughout the midbrain and striatum. To stain for tyrosine hydroxylase the anti-tyrosine hydroxylase polyclonal antibody (Millipore) 1:2000 followed by goat anti-rabbit IgG biotin conjugated antibody (Millipore) 1:500 with normal goat serum blocking solution was used; after antibody incubation and rinsing with PBS, sections were incubated with ABC Elite Kit (Vector) and processed for diaminobenzidine reaction. Slices were mounted on slides, allowed to dry overnight, dehydrated in ascending alcohol concentrations and mounted with DPX mountant (Sigma). The estimated number of tyrosine hydroxylase positive (TH^+) cells were stereologically counted as previously described.^27 Slices from DAT-Cre X Ai14 mice expressing TdTomato in dopaminergic neurons were mounted on slides, allowed to dry, and mounted with Prolong Gold antifade mountant (Invitrogen). The estimated number of tdTomato expressing cells were stereologically counted. Sampling for stereological quantification was done using an Olympus BX41 microscope with motorized stage (Applied Scientific Instrumentation) and computerized stereology software (Stereologer). The SNc was delineated in each animal in every other section and cells counted using a 40×/0.65NA Olympus lens.
# Drug application in ex vivo brain slice or iPSC experiments was performed via perfusion in aCSF.
# [3] = test system: substantia nigra pars compacta dopaminergic neurons; test: Ex vivo brain slice mitochondrial oxidant stress, mito-roGFP probe, two photon microscopy; assay type: cell-based, mouse; conditions: for effect on methamphetamine-induced dendritic mitochondrial stress / effect on methamphetamine-induced axonal (terminal) mitochondrial stress: 10 μM methamphetamine; for effect on methamphetamine-induced dendritic mitochondrial stress / effect on methamphetamine-induced axonal (terminal) mitochondrial stress / effect on levodopa-induced dendritic mitochondrial stress / effect on levodopa-induced axonal (terminal) mitochondrial stress / basal mitochondrial stress, monoamine oxidase inhibitor alone: clorgyline 5 μM; for effect on levodopa-induced dendritic mitochondrial stress / effect on levodopa-induced axonal (terminal) mitochondrial stress: 100 μM levodopa; for basal mitochondrial stress, monoamine oxidase inhibitor alone: dendrites and axons; for effect on methamphetamine- and levodopa-induced mitochondrial stress: slices pre-incubated with the MAO inhibitor
# Description: as §1
# (§2) Two photon microscopy: Ex vivo slices of the dorsolateral striatum or SNc were prepared and redox status determined as previously described (Guzman et al., 2010 Nature p. 696; incorporated by reference in its entirety). […] The dynamic range of the probe was determined by perfusing 2 mM dithiothreitol (DTT) to fully reduce the probe and 200 μM aldrithiol to fully oxidize the probe; data presented as % relative oxidation.
# Stereotaxic surgery: PCR amplified roGFP, mitoroGFP and IMSroGFP inserts were subcloned into pFB-TH-SV40pA vector between EcoR1 and SalI sites. After sequence and expression verification, pFB-TH-roGFP vectors were packaged into rAAVs using serotype 9 with titers 2.1-×10^13 viral genome copies/ml (Virovek). Mice were anesthetized using an isoflurane precision vaporizer (Smiths Medical PM) and placed in a stereotaxic frame (David Kopf Instruments) with a Cunningham adaptor (Harvard Apparatus) to maintain anesthesia delivery throughout surgery. After exposing the skull, a small hole was drilled and 350 nL of AAV9-TH-cytosolic roGFP or AAV9-TH-mitoroGFP delivered via a glass micropipette (Drummond Scientific Company) pulled on a Sutter P-97 puller. The substantia nigra pars compacta (SNc) was targeted at the following coordinates: AP: −3.05, ML: 1.20, and DV −4.30. All surgeries were performed in wild-type mice. Experiments in animals with stereotaxic delivery of AAV viral vectors were performed after at least 10 days post-op.
# Ex vivo slice preparation: Mice were terminally anesthetized with a mixture of ketamine (50 mg/kg)/xylazine (4.5 mg/kg) and transcardially perfused with ice cold modified artificial cerebrospinal fluid (aCSF) containing in mM: 124.0 NaCl, 3.0 KCl, 1.0 CaCl2, 2.0 MgCl2, 26 NaHCO3, 1.0 NaH2PO4, and 16.66 glucose. Once perfused the brain was rapidly removed and either saggital or coronal slices containing the dorsolateral striatum (275 μm thick) or the SNc (220 μm thick) sectioned using a vibratome (VT1200S Leica Microsystems). Slices were transferred to a holding chamber containing normal aCSF containing in mM: 124.0 NaCl, 3.0 KCl, 2.0 CaCl2, 1.0 MgCl2, 26 NaHCO3, 1.0 NaH2PO4, and 16.66 glucose and allowed at least 30-40 minutes to recover prior to experiments. All solutions were pH 7.4, 310-320 mOsm and continually bubbled with 95% O2/5% CO2.
# Ex vivo redox measurements and two photon microscopy: Oxidant stress was assessed using the redox sensitive roGFP probe targeted either to the cytosol or mitochondrial matrix as previously described.^10 Slices were transferred to a recording chamber and continuously perfused with normal aCSF at 32-34° C. Fluorescence was measured using an Ultima Laser Scanning Microscope system (Bruker) with a DODT contrast detector to provide bright-field transmission images with an Olympus 60/0.9NA lens. A two-photon laser (Chameleon Ultra II, Coherent Inc.) tuned to 920 nm was used to excite roGFP. Time series image acquisitions of the roGFP probe were obtained with 60 frames obtained over ˜20 seconds with 0.195 μm×0.195 μm pixels and 10-12 μsec dwell times. The dynamic range of the probe was determined with 2 mM dithiothreitol, a reducing agent, and 200 μM aldrithiol, an oxidizing agent, which were sequentially perfused and t-series acquired with each to determine the maximal and minimal fluorescence intensity. Test measurements were calculated as relative oxidation. T-series were analyzed offline and fluorescence measurements in multiple regions of interest evaluated with background subtracted.^10 Final data is presented as percent of control (aCSF perfusion).
# [4] = test system: human iPSC-derived dopamine neurons; test: iPSC redox measurements (roGFP, one photon microscopy); assay type: cell-based; conditions: for axonal mitochondrial stress in the intermembrane space: 100 μM levodopa vs control, IMS-roGFP
# From the text: Human iPSC culture and neural differentiation: The iPSC line was generated from skin fibroblasts of a healthy individual through retroviral expression of OCT4, SOX2, cMYC, KLF4 and previously clinically characterized.^23-25 Differentiation of iPSCs into midbrain dopaminergic neurons was done according to published protocols.^26 To help control neuralization variability, cells were passaged en bloc (size of 1-2 mm) between days 11 and 14, followed by plating onto poly-d-lysine (PDL)/laminin coated 10 cm dishes. Between days 25 and 30, neural blocks were passed by accutase treatment onto PDL/laminin coated culture dishes. Neuralization growth factors were withdrawn at day 40 and neurons were maintained in Neurobasal media (Life Technologies) containing Neurocult SM1 (Stemcell technologies).
# iPSC redox measurements and one photon microscopy: Human iPSC-derived dopaminergic neurons were grown on 12 mm glass coverslips and imaged between 75 and 88 days post-differentiation. Two to four days before experimentation, dopaminergic neurons were infected with viral vectors targeting roGFP expression to mitochondrial matrix (AAV9-TH-mitoroGFP), mitochondrial intermembrane space (AAV9-TH-IMSroGFP),^17 or the cytosol (AAV9-TH-cytoroGFP)^7. Cultures were transferred to an imaging chamber mounted on an inverted epifluorescence microscope (Nikon TE300) with a 40×/1.35NA oil-immersion objective. The imaging chamber was superfused with aCSF at a flow rate of 1 ml/min. Imaging experiments were carried out at 31-33° C. Cells were illuminated by Polychrome V (TILL Photonics) and emissions were captured with a cooled CCD camera (Hamamatsu ImagEM) and Slidebook imaging software (Intelligent Imaging Innovations). Regions of interests in the dendrites or axon were selected for image analysis. […] Afterwards, neurons were perfused with 2 mM dithiothreitol for 20 min and then 100 μM aldrithiol for 20 min to obtain full roGFP dynamic range.^7
# [5] = test system: substantia nigra pars compacta dopaminergic neurons; test: Ex vivo brain slice cytosolic oxidant stress, cyto-roGFP probe, two photon microscopy; assay type: cell-based, mouse; conditions: bath application of 20 μM menadione
# Description: as §1
# as §2, with “oxidation. […]” for “oxidation.”
# Ex vivo redox measurements and two photon microscopy: Oxidant stress was assessed using the redox sensitive roGFP probe targeted either to the cytosol or mitochondrial matrix as previously described.^10 Slices were transferred to a recording chamber and continuously perfused with normal aCSF at 32-34° C. Fluorescence was measured using an Ultima Laser Scanning Microscope system (Bruker) with a DODT contrast detector to provide bright-field transmission images with an Olympus 60/0.9NA lens. […] Test measurements were calculated as relative oxidation. […]
# SNc dopaminergic neurons = test: Pacemaking frequency in ex vivo slices; assay type: cell-based, mouse; conditions: 10 μM methamphetamine
# [6] = 1 mg/kg rasagiline pretreatment, 5 mg/kg methamphetamine
# [7] = rasagiline 10 μM, listed as rasagaline
# [8] = 5 mg/kg methamphetamine, 28 consecutive days
structure (smiles),measurement,setting,value
C#CCN[C@@H]1CCc2ccccc21 [rasagiline],effect on methamphetamine-induced loss of TH+ cells,"[1]; 1 mg/kg rasagiline, 30 min pretreatment, 5 mg/kg methamphetamine 14 days",prevented meth-induced loss of TH+ cells
same,"effect on methamphetamine-induced loss of SNc neurons, Dat-Cre X Ai14 mice","[2]; 1 mg/kg rasagiline 30 min pretreatment, 5 mg/kg methamphetamine",significantly reduced degeneration in both the striatum and SNc; also recorded: prevented
same,effect on methamphetamine-induced loss of SNc axons in the striatum,[2]; [6],significantly reduced degeneration in both the striatum and SNc; also recorded: prevented
same,effect on methamphetamine-induced loss of TH+ neurons,[2]; [6],prevented
same,effect on d-amphetamine-induced axonal mitochondrial stress,"[3]; 10 μM d-amphetamine, rasagiline 10 μM",prevented
same,effect on methamphetamine-induced dendritic mitochondrial stress,[3]; rasagiline 10 μM,prevented
same,effect on methamphetamine-induced axonal (terminal) mitochondrial stress,[3]; rasagiline 10 μM,attenuated
same,effect on methamphetamine-induced axonal (terminal) mitochondrial stress,[3]; [7],prevented
same,effect on levodopa-induced dendritic mitochondrial stress,[3]; rasagiline 10 μM,prevented
same,effect on levodopa-induced axonal (terminal) mitochondrial stress,[3]; rasagiline 10 μM,attenuated
same,effect on levodopa-induced axonal (terminal) mitochondrial stress,[3]; [7],prevented
same,"basal mitochondrial stress, monoamine oxidase inhibitor alone",[3]; rasagiline 10 μM,Neither rasagiline nor clorgyline had any effect on basal mitochondrial oxidant stress; also recorded: had no effect on mitochondrial stress
same,effect on methamphetamine- and levodopa-induced mitochondrial stress,[3],attenuated
C#CCN(C)CCCOc1ccc(Cl)cc1Cl [clorgyline],effect on methamphetamine-induced dendritic mitochondrial stress,[3]; rasagiline 10 μM,prevented
same,effect on methamphetamine-induced axonal (terminal) mitochondrial stress,[3]; rasagiline 10 μM,attenuated; also recorded: prevented rises in mitochondrial stress
same,effect on levodopa-induced dendritic mitochondrial stress,[3]; rasagiline 10 μM,prevented
same,effect on levodopa-induced axonal (terminal) mitochondrial stress,[3]; rasagiline 10 μM,attenuated; also recorded: prevented rises in mitochondrial stress
same,"basal mitochondrial stress, monoamine oxidase inhibitor alone",[3]; rasagiline 10 μM,Neither rasagiline nor clorgyline had any effect on basal mitochondrial oxidant stress; also recorded: had no effect on mitochondrial stress
same,effect on methamphetamine- and levodopa-induced mitochondrial stress,[3],attenuated; also recorded: diminished the mitochondrial redox effects of methamphetamine and levodopa
"N[C@@H](Cc1ccc(O)c(O)c1)C(=O)O [levodopa, L-3,4-dihydroxyphenylalanine]",axonal mitochondrial stress (mitochondrial matrix roGFP),[4]; 100 μM levodopa vs basal,increased axonal mitochondrial stress
same,dendritic mitochondrial stress (mitochondrial matrix roGFP),[4]; 100 μM levodopa vs basal,increased
same,axonal mitochondrial stress in the intermembrane space,[4],increased axonal mitochondrial stress in the intermembrane space
same,axonal mitochondrial stress in the intermembrane space,[4]; listed as Levodopa,robustly increased oxidant stress within the intermembrane space
same,mitochondrial matrix oxidant stress in human dopaminergic neurons,[4]; levodopa,increased mitochondrial matrix oxidant stress in human dopaminergic neurons in a MAO-dependent manner
CC1=CC(=O)c2ccccc2C1=O [menadione],cyto-roGFP oxidation state,[5],> 200 % above baseline
COC(=O)C1=C(C)NC(C)=C([N+](=O)[O-])C1c1ccccc1C(F)(F)F (stereo not drawn) [Bay K 8644],axonal (terminal) mitochondrial stress,"[3]; 10 μM drug alone, relative to control (aCSF), dorsolateral striatum slices",increased axonal mitochondrial stress
[Cl-].[K+] [KCl],axonal mitochondrial stress,[3]; 15 mM KCl alone,not significantly altered
same,axonal mitochondrial stress,[3]; 30 mM KCl perfusion,increased axonal mitochondrial stress
"CNC(C)Cc1ccccc1 (stereo not drawn) [methamphetamine, N-methylamphetamine]",tyrosine hydroxylase positive (TH+) cells,"[1]; 5 mg/kg methamphetamine for 14 days, sacrificed after 14 days withdrawal",loss of TH+ cells
same,"tyrosine hydroxylase expressing neurons (TH+ neurons) in the SNc, stereological quantification","[2]; 5 mg/kg methamphetamine ip, 28 consecutive days",significantly decreased tyrosine hydroxylase (TH) immunoreactivity in the SNc; also recorded: loss of tyrosine hydroxylase expressing neurons
same,"SNc axons in the striatum, optical density measurements",[2]; [8],loss of tdTomato fluorescence in both the striatum and SNc neurons; also recorded: loss of SNc axons in the striatum
same,"labeled (tdTomato) SNc neurons, Dat-Cre X Ai14 mice, stereological quantification",[2]; [8],loss of tdTomato fluorescence in both the striatum and SNc neurons
same,pacemaking frequency,SNc dopaminergic neurons,attenuated
